From PubChem BioAssay AID2772 (The Scripps Research Institute Molecular Screening Center, 2010)
Activity calls are given as the source filed them. No rule for the calls is given here.

Each molecule was assayed against Signal transducer and activator of transcription 1-alpha/beta (Homo sapiens) (UniProt P42224) (assay: STAT1 reporter inhibitors in fibroblasts, late-stage follow-up, cell-based, luminescence, NIH 3T3, dose response (AID 2772)). Conditions: NIH 3T3 fibroblasts, STAT1 luciferase reporter.
Chain of Signal transducer and activator of transcription 1-alpha/beta (Homo sapiens) (P42224 whole entry, looked up): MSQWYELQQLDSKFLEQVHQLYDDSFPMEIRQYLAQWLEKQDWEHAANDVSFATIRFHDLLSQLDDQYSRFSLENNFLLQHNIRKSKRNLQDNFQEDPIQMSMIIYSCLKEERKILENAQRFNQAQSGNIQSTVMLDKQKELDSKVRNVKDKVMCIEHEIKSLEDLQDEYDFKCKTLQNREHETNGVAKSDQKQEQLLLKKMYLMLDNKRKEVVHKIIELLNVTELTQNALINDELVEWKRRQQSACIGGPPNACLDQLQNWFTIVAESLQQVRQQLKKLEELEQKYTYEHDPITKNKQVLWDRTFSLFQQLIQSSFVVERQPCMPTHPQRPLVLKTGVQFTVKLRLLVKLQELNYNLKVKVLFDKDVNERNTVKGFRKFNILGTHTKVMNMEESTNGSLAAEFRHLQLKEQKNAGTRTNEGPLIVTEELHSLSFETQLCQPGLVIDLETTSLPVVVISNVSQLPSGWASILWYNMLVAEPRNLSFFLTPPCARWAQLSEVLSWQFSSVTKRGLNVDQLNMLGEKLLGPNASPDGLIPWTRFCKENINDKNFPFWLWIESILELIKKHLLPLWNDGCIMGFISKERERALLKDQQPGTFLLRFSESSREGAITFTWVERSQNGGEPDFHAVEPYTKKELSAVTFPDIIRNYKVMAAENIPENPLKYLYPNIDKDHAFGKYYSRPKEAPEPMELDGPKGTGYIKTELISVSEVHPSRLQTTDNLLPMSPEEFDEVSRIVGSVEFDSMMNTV
With O=C(Nc1ccc(F)cc1)C(c1ccccc1)N1CCN(S(=O)(=O)c2ccc3ccccc3c2)CC1 (centres undefined) the IC50 was > 55.7 µM (inactive).
For CN1CCN(C=C2Nc3ccccc3C(=O)N2Cc2nc(C34CC5CC(CC(C5)C3)C4)cs2)CC1, the IC50 was > 55.7 µM (inactive).
O=C(c1ccc(-n2c(=S)[nH]c3ccccc3c2=O)cc1)N1CCN(C2CCCCC2)CC1 was tested, and the IC50 was > 55.7 µM (inactive).
In the case of CN(C)Cc1nc2ccccc2c(=O)n1Cc1nc(C(C)(C)C)cs1, the IC50 is reported as “inactive”.
With Cc1ccc(-n2nc(C(=O)O)c3ccccc3c2=O)cc1Cl the IC50 was “inactive”.
With CCOC(=O)Nc1ccc2c(CSc3nc4ccccc4c(=O)[nH]3)cc(=O)oc2c1 the IC50 was > 55.7 µM (inactive).
Cc1ccc2oc(=O)cc(CSc3nc(-c4ccccc4)c4ccccc4n3)c2c1 was tested, and the IC50 was > 55.7 µM (inactive).
CN1CCN(Cc2nc3ccccc3c(=O)n2Cc2nc(-c3cccc([N+](=O)[O-])c3)cs2)CC1 was tested, and the IC50 was “inactive”.
In the case of NC(=O)c1ccc(S(=O)(=O)N2CCN(C(C(=O)Nc3ccc(F)cc3)c3ccccc3)CC2)cc1 (centres undefined), the IC50 is reported as > 55.7 µM (inactive).
CC(=O)c1ccc(S(=O)(=O)N2CCN(C(C(=O)Nc3ccc(C)cc3)c3ccccc3)CC2)cc1 (centres undefined) was tested, and the IC50 was > 55.7 µM (inactive).
O=C(Nc1ccc(F)cc1)C(c1ccccc1)N1CCN(S(=O)(=O)c2ccccc2)CC1 (centres undefined) was tested, and the IC50 was > 55.7 µM (inactive).
With COc1cc2c(cc1OC)C(=O)N(Cc1coc(-c3ccccc3)n1)C(=CN1CCOCC1)N2 the IC50 was > 55.7 µM (inactive).
COC(=O)c1nn(-c2ccc(F)cc2)c(=O)c2ccccc12 was tested, and the IC50 was > 55.7 µM (inactive).
CC(C(=O)Nc1ccc(F)c(F)c1)N1CCN(S(=O)(=O)c2ccc(C(F)(F)F)cc2)CC1 (centres undefined) was tested, and the IC50 was > 55.7 µM (inactive).
In the case of O=C(O)c1nn(-c2ccc(F)cc2)c(=O)c2ccccc12, the IC50 is reported as > 55.7 µM (inactive).
For COc1ccc(N2CCN(C(=O)c3ccc(-n4c(=S)[nH]c5ccccc5c4=O)cc3)CC2)cc1, the IC50 was > 55.7 µM (inactive).
For CC(C(=O)Nc1ccccc1)N1CCN(S(=O)(=O)c2ccccc2)CC1 (centres undefined), the IC50 was > 55.7 µM (inactive).
O=C(Nc1ccc(F)cc1)C(c1ccccc1)N1CCN(S(=O)(=O)c2ccc3c(c2)OCCO3)CC1 (centres undefined) was tested, and the IC50 was > 55.7 µM (inactive).
With COc1cccc(NC(=O)C(c2ccccc2)N2CCN(S(=O)(=O)c3ccc(C)cc3)CC2)c1 (centres undefined) the IC50 was “inactive”.
In the case of O=C(c1ccc(-n2c(=S)[nH]c3ccccc3c2=O)cc1)N1CCN(c2ccccc2)CC1, the IC50 is reported as > 55.7 µM (inactive).
With O=c1c2ccccc2nc(CN2CCOCC2)n1Cc1nc(-c2ccc[nH]2)cs1 the IC50 was “inactive”.
With COc1cccc(-c2csc(Cn3c(CN4CCOCC4)nc4ccccc4c3=O)n2)c1 the IC50 was “inactive”.
With Cc1ccc(-n2nc(C(=O)O)c3ccccc3c2=O)cc1C the IC50 was > 55.7 µM (inactive).
In the case of COc1ccc(C)cc1NC(=O)C(c1ccccc1)N1CCN(S(=O)(=O)c2ccc(F)cc2)CC1 (centres undefined), the IC50 is reported as > 55.7 µM (inactive).
For CCOc1ccc2oc(=O)cc(CSc3nc4ccccc4c(=O)[nH]3)c2c1, the IC50 was > 55.7 µM (inactive).
For CCOc1ccccc1NC(=O)C(c1ccccc1)N1CCN(S(=O)(=O)c2ccc(F)c(F)c2F)CC1 (centres undefined), the IC50 was > 55.7 µM (inactive).
With O=C(Nc1ccc(Cl)c(C(F)(F)F)c1)C(c1ccccc1)N1CCN(S(=O)(=O)c2ccccc2)CC1 (centres undefined) the IC50 was > 55.7 µM (inactive).
With O=C(Nc1ccc(F)cc1)C(c1ccccc1)N1CCN(C(=O)c2ccccc2)CC1 (centres undefined) the IC50 was > 55.7 µM (inactive).
In the case of CN1CCN(C(=O)c2ccc(-n3c(=S)[nH]c4ccccc4c3=O)cc2)CC1, the IC50 is reported as > 55.7 µM (inactive).
For O=C1c2ccccc2N/C(=C\N2CCOCC2)N1Cc1nc(-c2ccc(F)c(F)c2)cs1, the IC50 was “inactive”.
N#Cc1ccccc1S(=O)(=O)N1CCN(C(C(=O)Nc2ccc(F)cc2)c2ccccc2)CC1 (centres undefined) was tested, and the IC50 was > 55.7 µM (inactive).
With CN(C)C(=O)c1nn(-c2ccc(F)cc2)c(=O)c2ccccc12 the IC50 was > 55.7 µM (inactive).
In the case of CCC(C)c1ccc(-c2csc(CN3C(=O)c4ccccc4N/C3=C\N3CCN(C)CC3)n2)cc1 (centres undefined), the IC50 is reported as > 18.6 µM (inactive).
With CN1CCN(Cc2nc3ccccc3c(=O)n2Cc2nc(-c3ccccc3F)cs2)CC1 the IC50 was “inactive”.
Cc1ccc(NC(=O)C(c2ccccc2)N2CCN(S(=O)(=O)c3ccccc3)CC2)cc1 (centres undefined) was tested, and the IC50 was > 55.7 µM (inactive).
With O=c1cc(CSc2nc3ccccc3c(=O)[nH]2)c2ccc(O)cc2o1 the IC50 was “inactive”.
In the case of COc1cc2c(cc1OC)C(=O)N(Cc1nnc(-c3ccc(Cl)cc3)o1)C(=CN1CCOCC1)N2, the IC50 is reported as > 55.7 µM (inactive).
With CCOC(=O)N1CCN(C(=O)c2ccc(-n3c(=S)[nH]c4ccccc4c3=O)cc2)CC1 the IC50 was “inactive”.
In the case of O=C(c1ccc(-n2c(=S)[nH]c3ccccc3c2=O)cc1)N1CCN(c2ccc(F)cc2)CC1, the IC50 is reported as > 55.7 µM (inactive).
In the case of CCC(C(=O)Nc1ccccc1)N1CCN(S(=O)(=O)c2ccc3c(c2)CCC3)CC1 (centres undefined), the IC50 is reported as > 55.7 µM (inactive).
For COc1cc2c(cc1OC)C(=O)N(Cc1cc(-c3ccccc3OC)no1)C(=CN1CCOCC1)N2, the IC50 was > 55.7 µM (inactive).
With C=C1NN(c2ccc(C(=O)N3CCC(Cc4ccccc4)CC3)cc2)C(=O)c2ccccc21 the IC50 was > 55.7 µM (inactive).
With CNC(=O)c1nn(-c2ccc(F)cc2)c(=O)c2ccccc12 the IC50 was > 55.7 µM (inactive).
For CCOC(=O)c1ccc(S(=O)(=O)N2CCN(C(C(=O)Nc3ccc(OC)c(Cl)c3)c3ccccc3)CC2)cc1 (centres undefined), the IC50 was > 55.7 µM (inactive).
In the case of O=C(OCC1CCCCC1)c1nn(-c2ccccc2)c(=O)c2ccccc12, the IC50 is reported as > 55.7 µM (inactive).
For Cc1ccc(C)c(S(=O)(=O)N2CCN(C(C(=O)Nc3ccc(F)cc3)c3ccccc3)CC2)c1 (centres undefined), the IC50 was > 55.7 µM (inactive).
In the case of CN(Cc1ccccc1N1CCCC1)C(=O)c1nn(-c2ccccc2)c(=O)c2ccccc12, the IC50 is reported as > 55.7 µM (inactive).
For O=C(c1ccc(-n2c(=S)[nH]c3ccccc3c2=O)cc1)N1CCN(C(=O)c2ccco2)CC1, the IC50 was > 55.7 µM (inactive).
N#Cc1ccc(S(=O)(=O)N2CCN(C(C(=O)Nc3ccc(F)cc3)c3ccccc3)CC2)cc1 (centres undefined) was tested, and the IC50 was > 55.7 µM (inactive).
With CN(C)Cc1nc2ccccc2c(=O)n1Cc1nc(-c2cccc([N+](=O)[O-])c2)cs1 the IC50 was > 18.6 µM (inactive).
With Cc1ccc(C)c(NC(=O)C(c2ccccc2)N2CCN(S(=O)(=O)c3ccccc3C#N)CC2)c1 (centres undefined) the IC50 was > 55.7 µM (inactive).
In the case of O=C1c2ccccc2N/C(=C\N2CCOCC2)N1Cc1nc(-c2ccccc2F)cs1, the IC50 is reported as “inactive”.
Cc1cc2oc(=O)cc(CSc3nc4ccccc4c(=O)[nH]3)c2cc1Cl was tested, and the IC50 was > 55.7 µM (inactive).
In the case of CCOc1ccc(-c2csc(Cn3c(CN4CCN(C)CC4)nc4ccccc4c3=O)n2)cc1, the IC50 is reported as > 18.6 µM (inactive).
